Laboratory results from article PMC5564600 (Oncotarget, 2017).

What was measured:
Test in all cases: biochemical
Format in all cases: binding
panel of 442 kinases [1] = target: T1, panel of 442 kinases (Homo sapiens, UniProt Q9NQU5); details: kinase PAK6; for remaining activity at 1 µM: read-out: % of control at 1 µM
T1 construct: purchased Ambit Biosciences (scanMAXX KINOMEscan)

panel of 442 kinases [2] = target: T2, panel of 442 kinases (Homo sapiens, UniProt P08631); details: kinase HCK; for remaining activity at 1 µM: read-out: % of control at 1 µM
T2 construct: purchased Ambit Biosciences (scanMAXX KINOMEscan)
T2 sequence (P08631 whole entry): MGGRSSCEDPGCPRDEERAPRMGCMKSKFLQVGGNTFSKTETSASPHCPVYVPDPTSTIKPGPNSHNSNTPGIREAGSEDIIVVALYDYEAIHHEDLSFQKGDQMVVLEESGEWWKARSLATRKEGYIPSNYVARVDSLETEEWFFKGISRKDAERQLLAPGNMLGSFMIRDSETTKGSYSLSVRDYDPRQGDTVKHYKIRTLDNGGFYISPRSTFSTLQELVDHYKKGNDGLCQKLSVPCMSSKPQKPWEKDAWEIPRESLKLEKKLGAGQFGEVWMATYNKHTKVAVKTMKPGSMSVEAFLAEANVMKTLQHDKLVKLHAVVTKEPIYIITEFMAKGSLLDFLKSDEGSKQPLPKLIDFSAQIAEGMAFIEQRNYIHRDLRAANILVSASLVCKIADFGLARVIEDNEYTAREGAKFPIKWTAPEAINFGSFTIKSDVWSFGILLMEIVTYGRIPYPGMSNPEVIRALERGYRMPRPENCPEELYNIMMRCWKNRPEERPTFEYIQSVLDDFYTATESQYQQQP

panel of 442 kinases [3] = target: T3, panel of 442 kinases (Homo sapiens, UniProt P07333); details: CSF1R; for remaining activity at 1 µM: read-out: % of control at 1 µM
T3 construct: purchased Ambit Biosciences (scanMAXX KINOMEscan)

panel of 442 kinases [4] = target: T4, panel of 442 kinases (Homo sapiens, UniProt P15056); details: BRAF; for remaining activity at 1 µM: read-out: % of control at 1 µM
T4 construct: purchased Ambit Biosciences (scanMAXX KINOMEscan)
T4 sequence (P15056 whole entry): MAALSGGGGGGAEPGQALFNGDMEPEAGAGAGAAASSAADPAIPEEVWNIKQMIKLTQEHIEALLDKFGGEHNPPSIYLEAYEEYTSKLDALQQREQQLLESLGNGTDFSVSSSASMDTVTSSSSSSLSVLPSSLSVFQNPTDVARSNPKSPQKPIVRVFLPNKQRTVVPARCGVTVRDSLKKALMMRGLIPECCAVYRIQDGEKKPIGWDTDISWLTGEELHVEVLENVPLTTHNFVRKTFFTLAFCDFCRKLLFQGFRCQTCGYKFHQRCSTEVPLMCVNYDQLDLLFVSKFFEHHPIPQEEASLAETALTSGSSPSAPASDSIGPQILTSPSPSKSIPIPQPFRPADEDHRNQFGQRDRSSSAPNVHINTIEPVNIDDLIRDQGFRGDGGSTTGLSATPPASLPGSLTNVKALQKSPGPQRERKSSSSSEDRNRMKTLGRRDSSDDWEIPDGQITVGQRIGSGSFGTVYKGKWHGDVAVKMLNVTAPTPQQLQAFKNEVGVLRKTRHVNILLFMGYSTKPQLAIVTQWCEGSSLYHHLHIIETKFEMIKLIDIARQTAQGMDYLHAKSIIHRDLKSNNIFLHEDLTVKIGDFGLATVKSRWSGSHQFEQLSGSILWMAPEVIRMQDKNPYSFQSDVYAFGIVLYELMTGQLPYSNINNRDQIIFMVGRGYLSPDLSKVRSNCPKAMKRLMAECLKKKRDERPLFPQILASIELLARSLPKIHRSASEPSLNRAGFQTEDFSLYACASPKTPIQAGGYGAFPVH

panel of 442 kinases [5] = target: T5, panel of 442 kinases (Homo sapiens, UniProt P23443); details: kinase S6K1; for remaining activity at 1 µM: read-out: S6K1 (% of control at 1 µM)
T5 construct: purchased Ambit Biosciences (scanMAXX KINOMEscan)
T5 sequence (P23443 whole entry): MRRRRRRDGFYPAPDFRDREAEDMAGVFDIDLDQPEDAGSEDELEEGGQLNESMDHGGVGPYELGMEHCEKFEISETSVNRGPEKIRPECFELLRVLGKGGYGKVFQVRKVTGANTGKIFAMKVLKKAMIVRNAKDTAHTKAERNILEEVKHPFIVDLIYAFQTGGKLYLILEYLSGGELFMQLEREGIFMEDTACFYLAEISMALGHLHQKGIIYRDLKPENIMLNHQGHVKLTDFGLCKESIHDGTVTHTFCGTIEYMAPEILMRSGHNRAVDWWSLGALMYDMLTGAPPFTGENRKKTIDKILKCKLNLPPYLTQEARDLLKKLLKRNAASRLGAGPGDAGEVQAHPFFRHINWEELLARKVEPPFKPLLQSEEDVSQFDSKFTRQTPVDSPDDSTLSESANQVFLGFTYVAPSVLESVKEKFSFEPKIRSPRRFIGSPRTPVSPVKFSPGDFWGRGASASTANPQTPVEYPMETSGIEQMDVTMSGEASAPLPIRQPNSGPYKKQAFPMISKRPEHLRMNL

panel of 442 kinases [6] = target: T6, panel of 442 kinases (Homo sapiens, UniProt P16234); details: kinase PDGFRA; for remaining activity at 1 µM: read-out: % of control at 1 µM
T6 construct: purchased Ambit Biosciences (scanMAXX KINOMEscan)

panel of 442 kinases [7] = target: T7, panel of 442 kinases (Homo sapiens, UniProt P30530); details: AXL; for remaining activity at 1 µM: read-out: % of control at 1 µM
T7 construct: purchased Ambit Biosciences (scanMAXX KINOMEscan)
T7 sequence (P30530 26-894): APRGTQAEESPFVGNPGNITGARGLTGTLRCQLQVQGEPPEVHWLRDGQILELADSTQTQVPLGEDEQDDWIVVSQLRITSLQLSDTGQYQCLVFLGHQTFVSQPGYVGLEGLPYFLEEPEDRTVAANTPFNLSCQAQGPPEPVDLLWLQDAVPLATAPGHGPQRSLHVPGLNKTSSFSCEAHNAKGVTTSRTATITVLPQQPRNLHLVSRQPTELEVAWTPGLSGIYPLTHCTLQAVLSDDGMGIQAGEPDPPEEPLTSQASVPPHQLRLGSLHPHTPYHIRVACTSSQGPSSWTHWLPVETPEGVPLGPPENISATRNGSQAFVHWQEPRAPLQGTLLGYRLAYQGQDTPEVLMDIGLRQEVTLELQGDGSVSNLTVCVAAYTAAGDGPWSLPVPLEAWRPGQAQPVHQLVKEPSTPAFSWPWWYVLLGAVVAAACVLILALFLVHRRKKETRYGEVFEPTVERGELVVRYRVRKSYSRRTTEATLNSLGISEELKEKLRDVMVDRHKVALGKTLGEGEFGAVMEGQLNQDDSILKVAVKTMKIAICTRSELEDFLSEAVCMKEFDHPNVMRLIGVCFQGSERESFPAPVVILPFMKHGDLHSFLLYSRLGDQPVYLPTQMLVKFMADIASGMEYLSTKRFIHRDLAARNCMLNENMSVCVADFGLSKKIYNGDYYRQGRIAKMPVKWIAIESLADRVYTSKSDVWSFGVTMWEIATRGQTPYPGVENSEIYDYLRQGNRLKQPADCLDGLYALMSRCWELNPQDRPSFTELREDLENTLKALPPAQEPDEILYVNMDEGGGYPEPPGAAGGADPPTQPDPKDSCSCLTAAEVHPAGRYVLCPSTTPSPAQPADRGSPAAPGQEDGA

panel of 442 kinases [8] = target: T8, panel of 442 kinases (Homo sapiens, UniProt Q9P286); details: kinase PAK7; for remaining activity at 1 µM: read-out: % of control at 1 µM
T8 construct: purchased Ambit Biosciences (scanMAXX KINOMEscan)

panel of 442 kinases [9] = target: T9, panel of 442 kinases (Homo sapiens, UniProt Q00535); details: CDK5; for remaining activity at 1 µM: read-out: % of control at 1 µM
T9 construct: purchased Ambit Biosciences (scanMAXX KINOMEscan)
T9 sequence (Q00535 whole entry): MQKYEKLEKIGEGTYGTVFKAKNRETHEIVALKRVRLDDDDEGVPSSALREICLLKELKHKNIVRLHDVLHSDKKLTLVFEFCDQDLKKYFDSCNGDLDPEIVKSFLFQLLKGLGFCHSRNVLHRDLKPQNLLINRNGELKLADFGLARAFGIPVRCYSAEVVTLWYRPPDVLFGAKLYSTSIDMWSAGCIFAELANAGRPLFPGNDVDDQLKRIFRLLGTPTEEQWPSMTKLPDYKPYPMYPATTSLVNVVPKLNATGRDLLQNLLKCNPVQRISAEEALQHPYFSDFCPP

panel of 442 kinases [10] = target: T10, panel of 442 kinases (Homo sapiens, UniProt P54753); details: EPHB3; for remaining activity at 1 µM: read-out: % of control at 1 µM
T10 construct: purchased Ambit Biosciences (scanMAXX KINOMEscan)
T10 sequence (P54753 34-998): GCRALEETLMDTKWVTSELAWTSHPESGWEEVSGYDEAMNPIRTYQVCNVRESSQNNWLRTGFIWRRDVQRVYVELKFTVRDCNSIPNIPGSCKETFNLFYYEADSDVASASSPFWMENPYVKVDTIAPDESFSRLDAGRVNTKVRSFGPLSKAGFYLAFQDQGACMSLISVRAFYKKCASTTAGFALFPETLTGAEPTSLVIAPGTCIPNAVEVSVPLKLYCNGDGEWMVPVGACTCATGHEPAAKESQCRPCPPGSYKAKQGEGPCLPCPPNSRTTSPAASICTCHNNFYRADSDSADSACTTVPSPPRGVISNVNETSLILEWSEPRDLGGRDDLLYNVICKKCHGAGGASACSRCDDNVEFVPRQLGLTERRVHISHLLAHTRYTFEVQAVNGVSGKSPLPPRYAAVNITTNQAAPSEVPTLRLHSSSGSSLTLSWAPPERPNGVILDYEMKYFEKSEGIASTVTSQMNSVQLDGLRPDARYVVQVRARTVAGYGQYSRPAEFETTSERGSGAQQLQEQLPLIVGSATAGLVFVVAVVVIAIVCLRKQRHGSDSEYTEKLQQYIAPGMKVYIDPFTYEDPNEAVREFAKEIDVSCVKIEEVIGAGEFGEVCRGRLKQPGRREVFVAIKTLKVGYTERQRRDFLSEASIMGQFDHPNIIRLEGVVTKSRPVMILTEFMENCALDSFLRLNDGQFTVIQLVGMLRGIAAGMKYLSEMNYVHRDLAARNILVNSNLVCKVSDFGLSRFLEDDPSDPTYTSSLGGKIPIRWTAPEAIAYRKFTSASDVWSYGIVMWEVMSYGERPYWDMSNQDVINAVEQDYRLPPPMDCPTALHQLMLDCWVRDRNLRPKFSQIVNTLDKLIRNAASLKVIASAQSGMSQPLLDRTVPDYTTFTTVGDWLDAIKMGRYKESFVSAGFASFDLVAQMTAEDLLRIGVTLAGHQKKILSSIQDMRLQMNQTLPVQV

panel of 442 kinases [11] = target: T11, panel of 442 kinases (Homo sapiens, UniProt P08581); details: kinase MET; for remaining activity at 1 µM: read-out: % of control at 1 µM
T11 construct: purchased Ambit Biosciences (scanMAXX KINOMEscan)
T11 sequence (P08581 25-1390): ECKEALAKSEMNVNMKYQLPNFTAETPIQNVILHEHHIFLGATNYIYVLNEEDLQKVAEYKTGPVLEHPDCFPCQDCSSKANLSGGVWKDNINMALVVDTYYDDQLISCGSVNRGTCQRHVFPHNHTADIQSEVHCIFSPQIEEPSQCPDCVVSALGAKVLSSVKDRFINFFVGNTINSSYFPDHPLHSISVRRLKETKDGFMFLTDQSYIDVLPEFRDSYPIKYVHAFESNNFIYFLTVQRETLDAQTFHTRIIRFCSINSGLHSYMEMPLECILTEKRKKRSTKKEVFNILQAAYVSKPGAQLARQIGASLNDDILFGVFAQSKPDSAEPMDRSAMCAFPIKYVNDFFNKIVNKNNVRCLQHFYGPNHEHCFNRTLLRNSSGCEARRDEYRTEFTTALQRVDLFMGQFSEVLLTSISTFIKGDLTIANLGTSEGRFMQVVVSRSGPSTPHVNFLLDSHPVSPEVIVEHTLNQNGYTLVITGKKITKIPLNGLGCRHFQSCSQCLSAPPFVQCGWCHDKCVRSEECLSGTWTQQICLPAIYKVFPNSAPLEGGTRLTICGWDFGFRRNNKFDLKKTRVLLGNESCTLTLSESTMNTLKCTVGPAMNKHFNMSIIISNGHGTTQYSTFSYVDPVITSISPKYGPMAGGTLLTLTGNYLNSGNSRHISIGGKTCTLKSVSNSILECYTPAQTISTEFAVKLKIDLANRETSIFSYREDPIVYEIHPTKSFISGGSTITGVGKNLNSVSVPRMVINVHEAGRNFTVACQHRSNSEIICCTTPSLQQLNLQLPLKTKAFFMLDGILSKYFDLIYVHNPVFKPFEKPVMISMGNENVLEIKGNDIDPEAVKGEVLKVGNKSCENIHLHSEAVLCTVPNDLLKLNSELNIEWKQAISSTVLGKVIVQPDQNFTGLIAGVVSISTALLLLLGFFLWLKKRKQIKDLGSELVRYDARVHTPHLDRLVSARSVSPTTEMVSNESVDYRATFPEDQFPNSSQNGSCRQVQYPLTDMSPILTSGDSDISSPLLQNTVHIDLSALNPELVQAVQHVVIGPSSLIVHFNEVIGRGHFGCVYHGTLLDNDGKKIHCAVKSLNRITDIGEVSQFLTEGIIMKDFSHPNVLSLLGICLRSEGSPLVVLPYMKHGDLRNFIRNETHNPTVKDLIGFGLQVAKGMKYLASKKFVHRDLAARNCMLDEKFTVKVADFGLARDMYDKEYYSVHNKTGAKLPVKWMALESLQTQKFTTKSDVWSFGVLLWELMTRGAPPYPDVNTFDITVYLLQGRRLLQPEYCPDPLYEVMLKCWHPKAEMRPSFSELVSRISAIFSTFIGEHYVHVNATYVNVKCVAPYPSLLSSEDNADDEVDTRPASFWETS

panel of 442 kinases [12] = target: T12, panel of 442 kinases (Homo sapiens, UniProt Q02779); details: kinase MLK2; for remaining activity at 1 µM: read-out: % of control at 1 µM
T12 construct: purchased Ambit Biosciences (scanMAXX KINOMEscan)
T12 sequence (Q02779 whole entry): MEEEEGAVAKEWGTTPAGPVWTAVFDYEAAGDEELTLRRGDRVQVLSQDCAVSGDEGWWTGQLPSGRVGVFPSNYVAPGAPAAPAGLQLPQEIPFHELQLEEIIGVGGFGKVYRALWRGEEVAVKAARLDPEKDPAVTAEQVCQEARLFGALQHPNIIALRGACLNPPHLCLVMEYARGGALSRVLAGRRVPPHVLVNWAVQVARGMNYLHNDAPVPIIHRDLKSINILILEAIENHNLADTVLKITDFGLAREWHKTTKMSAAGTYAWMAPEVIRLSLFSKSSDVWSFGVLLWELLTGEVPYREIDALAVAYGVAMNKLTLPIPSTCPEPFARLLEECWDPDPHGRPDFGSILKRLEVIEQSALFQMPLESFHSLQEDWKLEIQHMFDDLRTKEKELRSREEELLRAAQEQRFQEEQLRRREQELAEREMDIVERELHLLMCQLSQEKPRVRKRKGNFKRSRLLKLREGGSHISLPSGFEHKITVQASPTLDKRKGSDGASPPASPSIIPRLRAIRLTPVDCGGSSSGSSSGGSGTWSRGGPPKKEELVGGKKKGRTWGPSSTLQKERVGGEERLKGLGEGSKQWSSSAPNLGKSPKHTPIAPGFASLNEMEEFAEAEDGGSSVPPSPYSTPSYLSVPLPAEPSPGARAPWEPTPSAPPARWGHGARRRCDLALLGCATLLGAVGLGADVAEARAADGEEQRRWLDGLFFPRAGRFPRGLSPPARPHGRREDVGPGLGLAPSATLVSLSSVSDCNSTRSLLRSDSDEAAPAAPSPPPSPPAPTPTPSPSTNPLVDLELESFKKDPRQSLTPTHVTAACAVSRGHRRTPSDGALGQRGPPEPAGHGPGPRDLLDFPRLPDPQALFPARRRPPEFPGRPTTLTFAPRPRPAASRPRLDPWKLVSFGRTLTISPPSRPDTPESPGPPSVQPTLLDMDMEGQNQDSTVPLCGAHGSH

panel of 442 kinases [13] = target: T13, panel of 442 kinases (Homo sapiens, UniProt O00506); details: kinase YSK1; for remaining activity at 1 µM: read-out: YSK1 (% of control at 1 µM)
T13 construct: purchased Ambit Biosciences (scanMAXX KINOMEscan)
T13 sequence (O00506 whole entry): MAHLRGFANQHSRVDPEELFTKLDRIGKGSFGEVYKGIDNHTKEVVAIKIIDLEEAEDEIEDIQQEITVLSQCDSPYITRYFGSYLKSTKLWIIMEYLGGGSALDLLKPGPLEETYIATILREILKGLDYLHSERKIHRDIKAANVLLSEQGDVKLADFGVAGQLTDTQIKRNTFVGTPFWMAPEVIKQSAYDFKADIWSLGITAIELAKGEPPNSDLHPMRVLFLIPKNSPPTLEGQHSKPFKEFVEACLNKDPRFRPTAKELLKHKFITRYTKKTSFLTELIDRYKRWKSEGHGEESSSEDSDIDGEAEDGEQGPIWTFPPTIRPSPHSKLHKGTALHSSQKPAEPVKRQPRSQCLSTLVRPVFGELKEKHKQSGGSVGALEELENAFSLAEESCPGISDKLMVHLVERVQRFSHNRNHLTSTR

[14] = 10 µM, read-out: % of control at 10 µM

Nc1cc(C(F)(F)F)c(-c2cc(N3CCOCC3)nc(N3CCOCC3)n2)cn1 [Buparlisib]
remaining activity at 1 µM (panel of 442 kinases [1]): 96% | remaining activity at 10 µM (panel of 442 kinases [1]; [14]): 100% | remaining activity at 1 µM (panel of 442 kinases [2]): 100% | remaining activity at 10 µM (panel of 442 kinases [2]; [14]): 100% | remaining activity at 1 µM (panel of 442 kinases [3]): 85% | remaining activity at 10 µM (panel of 442 kinases [3]; [14]): 40% | remaining activity at 1 µM (panel of 442 kinases [4]): 59% | remaining activity at 10 µM (panel of 442 kinases [4]; [14]): 40% | remaining activity at 1 µM (panel of 442 kinases [5]): 88% | remaining activity at 10 µM (panel of 442 kinases [5]; 10 µM, read-out: S6K1 (% of control at 10 µM)): 99% | remaining activity at 1 µM (panel of 442 kinases [6]): 100% | remaining activity at 10 µM (panel of 442 kinases [6]; [14]): 100% | remaining activity at 1 µM (panel of 442 kinases [7]): 89% | remaining activity at 10 µM (panel of 442 kinases [7]; [14]): 100% | remaining activity at 1 µM (panel of 442 kinases [8]): 78% | remaining activity at 10 µM (panel of 442 kinases [8]; [14]): 69% | remaining activity at 1 µM (panel of 442 kinases [9]): 100% | remaining activity at 10 µM (panel of 442 kinases [9]; [14]): 99% | remaining activity at 1 µM (panel of 442 kinases [10]): 91% | remaining activity at 10 µM (panel of 442 kinases [10]; [14]): 100% | remaining activity at 1 µM (panel of 442 kinases [11]): 100% | remaining activity at 10 µM (panel of 442 kinases [11]; [14]): 100% | remaining activity at 1 µM (panel of 442 kinases [12]): 100% | remaining activity at 10 µM (panel of 442 kinases [12]; [14]): 100% | remaining activity at 1 µM (panel of 442 kinases [13]): 100% | remaining activity at 10 µM (panel of 442 kinases [13]; 10 µM, read-out: YSK1 (% of control at 10 µM)): 100%

Cn1c(=O)n(-c2ccc(C(C)(C)C#N)cc2)c2c3cc(-c4cnc5ccccc5c4)ccc3ncc21 [Dactolisib, 2-methyl-2-[4-(3-methyl-2-oxo-8-quinolin-3-yl-2,3-dihydroimidazo[4,5-c]quinolin-1-yl)-phenyl] propionitrile]
remaining activity at 1 µM (panel of 442 kinases [1]): 92% | remaining activity at 1 µM (panel of 442 kinases [2]): 94% | remaining activity at 1 µM (panel of 442 kinases [4]): 88% | remaining activity at 1 µM (panel of 442 kinases [6]): 100% | remaining activity at 1 µM (panel of 442 kinases [7]): 48% | remaining activity at 1 µM (panel of 442 kinases [8]): 73% | remaining activity at 1 µM (panel of 442 kinases [9]): 100% | remaining activity at 1 µM (panel of 442 kinases [10]): 70% | remaining activity at 1 µM (panel of 442 kinases [12]): 100% | remaining activity at 1 µM (panel of 442 kinases [13]): 100%

COc1ncc(-c2ccc3nccc(-c4ccnnc4)c3c2)cc1NS(=O)(=O)c1ccc(F)cc1F [Omipalisib]
remaining activity at 1 µM (panel of 442 kinases [1]): 100% | remaining activity at 1 µM (panel of 442 kinases [2]): 100% | remaining activity at 1 µM (panel of 442 kinases [3]): 100% | remaining activity at 1 µM (panel of 442 kinases [5]): 100% | remaining activity at 1 µM (panel of 442 kinases [6]): 100% | remaining activity at 1 µM (panel of 442 kinases [7]): 100% | remaining activity at 1 µM (panel of 442 kinases [8]): 100% | remaining activity at 1 µM (panel of 442 kinases [9]): 100% | remaining activity at 1 µM (panel of 442 kinases [10]): 100% | remaining activity at 1 µM (panel of 442 kinases [11]): 99% | remaining activity at 1 µM (panel of 442 kinases [12]): 98% | remaining activity at 1 µM (panel of 442 kinases [13]): 91%

FC(F)c1nc2ccccc2n1-c1nc(N2CCOCC2)nc(N2CCOCC2)n1 [ZSTK474, 2-(difluoromethyl)-1-[4,6-di(4-morpholinyl)-1,3,5-triazin-2-yl]-1H-benzimidazole]
remaining activity at 1 µM (panel of 442 kinases [1]): 100% | remaining activity at 1 µM (panel of 442 kinases [2]): 100% | remaining activity at 1 µM (panel of 442 kinases [3]): 90% | remaining activity at 1 µM (panel of 442 kinases [4]): 61% | remaining activity at 1 µM (panel of 442 kinases [5]): 91% | remaining activity at 1 µM (panel of 442 kinases [6]): 85% | remaining activity at 1 µM (panel of 442 kinases [7]): 93% | remaining activity at 1 µM (panel of 442 kinases [8]): 100% | remaining activity at 1 µM (panel of 442 kinases [9]): 100% | remaining activity at 1 µM (panel of 442 kinases [10]): 56% | remaining activity at 1 µM (panel of 442 kinases [11]): 100% | remaining activity at 1 µM (panel of 442 kinases [12]): 100% | remaining activity at 1 µM (panel of 442 kinases [13]): 83%
